In article PMC8565515, “Dasabuvir Inhibits Human Norovirus Infection in Human Intestinal Enteroids” (mSphere, 2021):
Structures can show the parent of a compound that is named as a salt. Where two headings read alike, the source gives them in different places.

Key:
[1] = tested on: GII.4 HuNoV; experiment: GII.4 HuNoV infection of HIE monolayers, viral genome equivalents by RT-qPCR; type: cell-based, human norovirus; conditions: for activity at 10 µM: Norovirus, 24 h, read-out: (%) HuNoV GEs
[2] = tested on: J2 HIE monolayers
[3] = compound 10 μM, n = 1, J2 HIE monolayers, GII.4 HuNoV, 24 hpi, normalized to DMSO control

Compound | (%) HuNoV GEs [1, 3] [%] | (%) Cytotoxicity ([2]; human, 24 h, 10 μM) [%] | activity at 10 µM [1, 3] [%] | further results
Cc1cccc(N2CCN(S(=O)(=O)c3ccc4c(c3)CCCN4C(=O)C3CCC3)CC2)c1C [G855-2047] | 133.69 |  |  | 
CCC[C@H](NC(=O)[C@@H]1[C@H]2CCC[C@H]2CN1C(=O)[C@@H](NC(=O)[C@@H](NC(=O)c1cnccn1)C1CCCCC1)C(C)(C)C)C(=O)C(=O)NC1CC1 [Telaprevir] |  | 0.86 | 53.2 | 
O=C(O)c1cc(=O)[nH]c(=O)[nH]1 [Orotic acid] |  | 0.45 | 52.6 | 
N[C@@H](CCC(=O)N[C@@H](CS[C@@H]1CCn2ccc(CO)c21)C(=O)NCC(=O)O)C(=O)O [6466-0862] | 155.85 |  |  | (%) Cytotoxicity [2]: -0.22%
Cc1ccc(NC(=O)C(=O)NC2CC(C)(C)NC(C)(C)C2)cc1 [YYA-021] | 54.17 |  |  | 
O=C(Nc1nc2ccc3scnc3c2s1)c1ccc2ccccc2c1 [KIN1148] | 58.10 |  |  | 
Nc1ccn([C@H]2CC[C@@H](CO)O2)c(=O)n1 [Zalcitabine] |  | 2.88 | 71.5 | 
CCOC(=O)c1cccc(NC(=O)CCn2nc(C)c(S(=O)(=O)N3CCCCC3)c2C)c1 [G402-0849] | 158.24 |  |  | (%) Cytotoxicity [2]: 1.12%
CC(C)[C@H](N)C(=O)OCC(CO)OCn1cnc2c(=O)nc(N)[nH]c21 (stereo partly shown) [Valganciclovir hydrochloride] |  | 0.33 | 189 | 
CO/N=C(\C(=O)N[C@@H]1C(=O)N2C(C(=O)O)=C(COC(C)=O)CS[C@H]12)c1csc(N)n1 [Cefotaxime sodium] |  | 0.51 | 10.1 | 
O=C(O)[C@H]1O[C@@H](Oc2cc3oc(-c4ccccc4)cc(=O)c3c(O)c2O)[C@H](O)[C@@H](O)[C@@H]1O [Baicalin] |  |  | 97.7 | 
OC[C@H]1O[C@@H](O[C@@H]2OC=C[C@H]3[C@H](O)[C@@H]4O[C@]4(CO)[C@@H]23)[C@H](O)[C@@H](O)[C@@H]1O [Catalpol] |  | 3.07 | 104 | 
C[C@H](NC(=O)C(=O)Nc1ccccc1C(C)(C)C)C(=O)N[C@@H](CC(=O)O)C(=O)COc1c(F)c(F)cc(F)c1F [Emricasan] |  |  | 198 | 
C=CC1=C(C(=O)O)N2C(=O)[C@@H](NC(=O)/C(=N\OCC(=O)O)c3csc(N)n3)[C@H]2SC1 [Cefixime] |  | 2.28 | 41.9 | 
C=C(C)[C@@H]1CC[C@]2(CO)CC[C@]3(C)[C@H](CC[C@@H]4[C@@]5(C)CC[C@H](O)C(C)(C)[C@@H]5CC[C@]43C)[C@@H]12 [Betulin] |  |  | 69.8 | (%) Cytotoxicity ([2]; human): 4.24%
Maraviroc | 52.60 |  |  | 

Compound | (%) HuNoV GEs [1, 3] [%] | (%) Cytotoxicity ([2]; human, 24 h, 10 μM) [%] | activity at 10 µM [1, 3] [%] | further results
NC(=O)N1CCC(CC(=O)N2CCC([C@H]3c4ncc(Br)cc4CCc4cc(Cl)cc(Br)c43)CC2)CC1 [Lonafarnib] |  |  | 62.3 | 
Cc1cccc(C)c1OCC(=O)N[C@@H](Cc1ccccc1)[C@@H](O)C[C@H](Cc1ccccc1)NC(=O)[C@H](C(C)C)N1CCCNC1=O [Lopinavir] |  | 9.07 | 102 | 
CC(=O)OCC(CCn1cnc2cnc(N)nc21)COC(C)=O [Famciclovir] |  | 0.72 | 27.3 | 
O=c1[nH]c(=O)n([C@H]2C[C@H](O)[C@@H](CO)O2)cc1C(F)(F)F [Trifluridine] |  | 0.46 | 77.1 | 
O=c1[nH]cc(F)c(=O)[nH]1 [Fluorouracil] |  | -0.47 | 27.4 | 
CC(=O)Oc1c(C)c(C)c2c(c1C)CCC(C)(CCC[C@H](C)CCC[C@H](C)CCCC(C)C)O2 (stereo partly shown) [Vitamin E Acetate] |  |  | 55.8 | 
HZ-1157 | 36.74 |  |  | 
CC(C)CN(C[C@@H](O)[C@H](Cc1ccccc1)NC(=O)O[C@H]1CO[C@H]2OCC[C@H]21)S(=O)(=O)c1ccc(N)cc1 [Darunavir] |  |  | 91.8 | 
Dermofongin | 46.93 |  |  | 
C=C1CC[C@@H]2[C@](C)(COC(=O)CCC(=O)[O-])[C@H](OC(=O)CCC(=O)O)CC[C@@]2(C)[C@@H]1/C=C/C1=CCOC1=O.[K+] [Dehydroandrographolide Succinate Potasium Salt] | 40.48 |  |  | 
O=C(Nc1ccccc1)c1ccccc1O [Salicylanilide] |  |  | 85.5 | 
Cn1c(Cn2ccc(C(F)(F)F)c(Oc3cc(Cl)cc(C#N)c3)c2=O)n[nH]c1=O [Doravirine] |  |  | 32.7 | 
NC(=O)c1ncn([C@@H]2O[C@H](CO)[C@@H](O)[C@H]2O)n1 [Ribavirin] |  |  | 64.5 | 
S=C(NCCc1ccccn1)Nc1ccc(Br)cn1 [Trovirdine] |  |  |  | activity at 10 µM [1]: 48.3%
NC12CC3CC(CC(C3)C1)C2 [Amantadine hydrochloride] |  |  | 232 | 
COC(=O)C1=C(C)NC(c2ncc(F)cc2F)=NC1c1ccc(F)cc1Cl (racemic) [Bay 41-4109 racemate] | 39.26 |  |  | 
